Assay results: patent publication US7101878B1 (Agouron Pharmaceuticals, Inc., priority 1998, dated 2006)
Where two headings read alike, the source gives them in different places.

Legend:
mouse GnRH receptor = biological target: T1, mouse GnRH receptor (Mus musculus, UniProt Q01776); experiment: Radioligand binding, 125I-GnRH-A, 293 cells expressing mouse GnRH receptors; conditions: 10 uM; read-out: % Inhib. @ 10 uM mGnRH
T1 construct: expressed in transfected cells; host or cells: 293 cells
T1 sequence (Q01776 1-327): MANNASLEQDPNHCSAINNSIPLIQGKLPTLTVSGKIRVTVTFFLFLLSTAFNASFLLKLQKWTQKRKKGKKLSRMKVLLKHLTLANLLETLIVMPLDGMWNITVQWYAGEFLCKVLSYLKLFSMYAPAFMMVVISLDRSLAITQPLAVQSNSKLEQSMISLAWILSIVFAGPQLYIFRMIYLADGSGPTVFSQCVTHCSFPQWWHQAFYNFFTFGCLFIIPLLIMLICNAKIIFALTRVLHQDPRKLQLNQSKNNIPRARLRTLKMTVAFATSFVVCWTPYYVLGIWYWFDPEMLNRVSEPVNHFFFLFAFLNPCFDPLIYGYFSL
Procedure: All compounds were diluted in 1% DMSO (final assay concentration) in binding assay buffer. […] Reactions were terminated by rapid filtration onto 96-well Packard GF/C filters soaked in 0.1% polyethyleneimine. Filters were washed three times with PBS buffer, dried and counted on a Packard Topcount by liquid scintillation counting.
Assay conditions were identical for assessing compound activities at other species. […] IC50 values for control peptides and test compounds were calculated utilizing GraphPad Prism™ software.
The reaction mixture was vortexed and incubated for 1 min at room temperature. After one min, the mixture was vortexed and allowed to incubate for an additional minute. 2 ml of 0.5 M acetic acid/1% BSA was added to the reaction tube and the mixture was added to a C18 Sep-Pak cartridge. The cartridge was washed with subsequent washes of 5 ml H2O and 5 ml 0.5M acetic acid and then eluted with 5×1 ml of 60% CH3CN/40% 0.5M acetic acid. The eluate was diluted with 3× volume of HPLC buffer A (0.1% TFA in H2O) and loaded onto a C18 column. […] The radioactive fractions (750 ed/fraction) are collected into clean polypropylene tubes containing 100 μl of 10% BSA. Fractions were assessed for biological activity by radioligand binding.

human GnRH receptor = biological target: T2, human GnRH receptor (Homo sapiens, UniProt P30968); experiment: Radioligand binding, 125I-GnRH-A displacement, membranes of HEK 293 cells with human GnRH receptor
T2 construct: expressed in transfected cells; host or cells: HEK 293 (hGnRH-R/293, from Dr. Stuart Sealfon)
T2 sequence (P30968 1-328): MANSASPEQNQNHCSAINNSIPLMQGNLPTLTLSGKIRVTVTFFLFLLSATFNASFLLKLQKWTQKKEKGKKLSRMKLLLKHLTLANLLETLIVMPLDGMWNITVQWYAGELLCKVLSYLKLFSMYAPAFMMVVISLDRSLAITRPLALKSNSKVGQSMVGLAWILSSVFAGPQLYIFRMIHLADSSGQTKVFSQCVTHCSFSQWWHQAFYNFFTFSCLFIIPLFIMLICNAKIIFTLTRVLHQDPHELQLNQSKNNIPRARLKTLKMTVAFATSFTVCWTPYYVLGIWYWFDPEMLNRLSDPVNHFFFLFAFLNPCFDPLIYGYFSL
Procedure, shortened: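 Bound tracer was separated by filtration through polyethyleneimine-soaked GF/C filters and counted by liquid scintillation. IC50 from curve fitting; other species were tested under the same conditions.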

[1] = 1 uM, read-out: % Inhib. @ 1 uM hGnRH
[2] = 1 h, repeat of % Inhib. at 1 uM, read-out: Repeats @ 1 uM hGnRH

Cc1cc2c(cc1Cc1ccc(C(=O)N3CCCC3CNc3ccccc3)o1)C(C)(C)CCC2(C)C (centres unmarked)
inhibition at 10 µM (mouse GnRH receptor): 53%

Cc1cc2c(cc1Cc1ccc(C(=O)NC(C)c3cccc4ccccc34)o1)C(C)(C)CCC2(C)C (centres unmarked)
inhibition at 10 µM (mouse GnRH receptor): 28%

C#CCN(C)C(=O)c1ccc(Cc2cc3c(cc2C)C(C)(C)CCC3(C)C)o1
inhibition at 10 µM (mouse GnRH receptor): 83%

Cc1cc2c(cc1Cc1ccc(C(=O)N3CCC(c4cccc(C(F)(F)F)c4)C(O)C3)o1)C(C)(C)CCC2(C)C (centres unmarked)
inhibition at 10 µM (mouse GnRH receptor): 35%

Cc1cc2c(cc1Cc1ccc(C(=O)NCc3ccc(Cl)cc3Cl)o1)C(C)(C)CCC2(C)C [drawing 1133]
inhibition at 1 µM (human GnRH receptor; [1]): 53%
inhibition at 1 µM (human GnRH receptor; [2]): 64%

Cc1cc2c(cc1Cc1ccc(C(=O)NCc3ccc(F)cc3)o1)C(C)(C)CCC2(C)C [drawing 1135]
inhibition at 1 µM (human GnRH receptor; [1]): 69%
inhibition at 1 µM (human GnRH receptor; [2]): 71%

Cc1cc2c(cc1Cc1ccc(C(=O)NCc3cccc(Cl)c3)o1)C(C)(C)CCC2(C)C [drawing 1136]
inhibition at 1 µM (human GnRH receptor; [1]): 78%
inhibition at 1 µM (human GnRH receptor; [2]): 84%

Cc1cc2c(cc1Cc1ccc(C(=O)NC(CO)Cc3ccccc3)o1)C(C)(C)CCC2(C)C (centres unmarked) [drawing 1137]
% Inhib. @ 1 uM hGnRH (human GnRH receptor; 1 uM): 17%
Repeats @ 1 uM hGnRH (human GnRH receptor; repeat of % Inhib. at 1 uM): 20

Cc1cc2c(cc1Cc1ccc(C(=O)NC(C)c3ccccc3)o1)C(C)(C)CCC2(C)C (centres unmarked) [drawing 1138]
inhibition at 1 µM (human GnRH receptor; [1]): 53%
inhibition at 1 µM (human GnRH receptor; [2]): 58%

Cc1cc2c(cc1Cc1ccc(C(=O)NCc3ccc(C(C)(C)C)cc3)o1)C(C)(C)CCC2(C)C [drawing 1140]
inhibition at 1 µM (human GnRH receptor; [1]): -14%
inhibition at 1 µM (human GnRH receptor; [2]): -6%

COc1cccc(CCNC(=O)c2ccc(Cc3cc4c(cc3C)C(C)(C)CCC4(C)C)o2)c1OC [drawing 1147]
inhibition at 1 µM (human GnRH receptor; [1]): 58%
inhibition at 1 µM (human GnRH receptor; [2]): 63%

COc1cc(CCNC(=O)c2ccc(Cc3cc4c(cc3C)C(C)(C)CCC4(C)C)o2)cc(OC)c1 [drawing 1148]
inhibition at 1 µM (human GnRH receptor; [1]): 44%
inhibition at 1 µM (human GnRH receptor; [2]): 48%

Cc1cc2c(cc1Cc1ccc(C(=O)NC3CC3)o1)C(C)(C)CCC2(C)C [drawing 1149]
inhibition at 1 µM (human GnRH receptor; [1]): 49%
inhibition at 1 µM (human GnRH receptor; [2]): 58%

Cc1cc2c(cc1Cc1ccc(C(=O)NC3CCCc4ccccc43)o1)C(C)(C)CCC2(C)C (centres unmarked) [drawing 1150]
% Inhib. @ 1 uM hGnRH (human GnRH receptor; 1 uM): 16%
Repeats @ 1 uM hGnRH (human GnRH receptor; repeat of % Inhib. at 1 uM): 32

COCCNC(=O)c1ccc(Cc2cc3c(cc2C)C(C)(C)CCC3(C)C)o1 [drawing 1155]
inhibition at 1 µM (human GnRH receptor; [1]): 55%
inhibition at 1 µM (human GnRH receptor; [2]): 61%

Cc1cc2c(cc1Cc1ccc(C(=O)NCCc3ccc(Br)cc3)o1)C(C)(C)CCC2(C)C [drawing 1171]
inhibition at 1 µM (human GnRH receptor; [1]): 16%
inhibition at 1 µM (human GnRH receptor; [2]): 24%

COc1ccc(CCNC(=O)c2ccc(Cc3cc4c(cc3C)C(C)(C)CCC4(C)C)o2)cc1 [drawing 1173]
inhibition at 1 µM (human GnRH receptor; [1]): 42%
inhibition at 1 µM (human GnRH receptor; [2]): 53%

Cc1cccc(CNC(=O)c2ccc(Cc3cc4c(cc3C)C(C)(C)CCC4(C)C)o2)c1 [drawing 1174]
inhibition at 1 µM (human GnRH receptor; [1]): 93%
inhibition at 1 µM (human GnRH receptor; [2]): 95%

Cc1ccc(CNC(=O)c2ccc(Cc3cc4c(cc3C)C(C)(C)CCC4(C)C)o2)cc1 [drawing 1175]
inhibition at 1 µM (human GnRH receptor; [1]): 87%
inhibition at 1 µM (human GnRH receptor; [2]): 90%

Cc1cc2c(cc1Cc1ccc(C(=O)NCCO)o1)C(C)(C)CCC2(C)C [drawing 1178]
inhibition at 1 µM (human GnRH receptor; [1]): 1%
inhibition at 1 µM (human GnRH receptor; [2]): 1%

Cc1cc2c(cc1Cc1ccc(C(=O)NCCC#N)o1)C(C)(C)CCC2(C)C [drawing 1179]
inhibition at 1 µM (human GnRH receptor; [1]): 42%
inhibition at 1 µM (human GnRH receptor; [2]): 44%

Cc1cc2c(cc1Cc1ccc(C(=O)NCCc3cccc(F)c3)o1)C(C)(C)CCC2(C)C [drawing 1181]
inhibition at 1 µM (human GnRH receptor; [1]): 59%
inhibition at 1 µM (human GnRH receptor; [2]): 62%

Cc1cc2c(cc1Cc1ccc(C(=O)NCCOc3ccccc3)o1)C(C)(C)CCC2(C)C [drawing 1182]
inhibition at 1 µM (human GnRH receptor; [1]): 93%
inhibition at 1 µM (human GnRH receptor; [2]): 95%

COc1cccc(CNC(=O)c2ccc(Cc3cc4c(cc3C)C(C)(C)CCC4(C)C)o2)c1 [drawing 1188]
inhibition at 1 µM (human GnRH receptor; [1]): 76%
inhibition at 1 µM (human GnRH receptor; [2]): 79%

Cc1cc2c(cc1Cc1ccc(C(=O)NCc3cccc(-c4ccccc4)c3)o1)C(C)(C)CCC2(C)C [drawing 1190]
inhibition at 1 µM (human GnRH receptor; [1]): -10%
inhibition at 1 µM (human GnRH receptor; [2]): -6%

Cc1ccc(CNC(=O)c2ccc(Cc3cc4c(cc3C)C(C)(C)CCC4(C)C)o2)cc1C [drawing 1191]
inhibition at 1 µM (human GnRH receptor; [1]): 77%
inhibition at 1 µM (human GnRH receptor; [2]): 79%

Cc1cc2c(cc1Cc1ccc(C(=O)NCc3cccc(C)c3C)o1)C(C)(C)CCC2(C)C [drawing 1192]
inhibition at 1 µM (human GnRH receptor; [1]): 81%
inhibition at 1 µM (human GnRH receptor; [2]): 85%

Cc1ccc(CCNC(=O)c2ccc(Cc3cc4c(cc3C)C(C)(C)CCC4(C)C)o2)cc1 [drawing 1193]
inhibition at 1 µM (human GnRH receptor; [1]): 48%
inhibition at 1 µM (human GnRH receptor; [2]): 52%

Cc1cc2c(cc1Cc1ccc(C(=O)NCc3cccc(F)c3)o1)C(C)(C)CCC2(C)C [drawing 1195]
inhibition at 1 µM (human GnRH receptor; [1]): 81%
inhibition at 1 µM (human GnRH receptor; [2]): 82%

Cc1cc2c(cc1Cc1ccc(C(=O)NCC(O)c3ccccc3)o1)C(C)(C)CCC2(C)C (centres unmarked) [drawing 1196]
inhibition at 1 µM (human GnRH receptor; [1]): 68%
inhibition at 1 µM (human GnRH receptor; [2]): 69%

Cc1cc2c(cc1Cc1ccc(C(=O)NCc3ccc(F)cc3F)o1)C(C)(C)CCC2(C)C [drawing 1197]
inhibition at 1 µM (human GnRH receptor; [1]): 74%
inhibition at 1 µM (human GnRH receptor; [2]): 81%

Cc1cc2c(cc1Cc1ccc(C(=O)NCCc3ccc(F)cc3)o1)C(C)(C)CCC2(C)C [drawing 1198]
inhibition at 1 µM (human GnRH receptor; [1]): 45%
inhibition at 1 µM (human GnRH receptor; [2]): 45%

Cc1cc2c(cc1Cc1ccc(C(=O)NC(CO)CC3CCCCC3)o1)C(C)(C)CCC2(C)C (centres unmarked) [drawing 1215]
inhibition at 1 µM (human GnRH receptor; [1]): 10%
inhibition at 1 µM (human GnRH receptor; [2]): 2%

Cc1cc2c(cc1Cc1ccc(C(=O)NCc3ccc(N(C)C)cc3)o1)C(C)(C)CCC2(C)C [drawing 1220]
inhibition at 1 µM (human GnRH receptor; [1]): 78%
inhibition at 1 µM (human GnRH receptor; [2]): 85%

COc1cc(CNC(=O)c2ccc(Cc3cc4c(cc3C)C(C)(C)CCC4(C)C)o2)ccc1O [drawing 1222]
inhibition at 1 µM (human GnRH receptor; [1]): 54%
inhibition at 1 µM (human GnRH receptor; [2]): 54%

Cc1cc2c(cc1Cc1ccc(C(=O)NCc3ccccc3Br)o1)C(C)(C)CCC2(C)C [drawing 1223]
inhibition at 1 µM (human GnRH receptor; [1]): 57%
inhibition at 1 µM (human GnRH receptor; [2]): 60%

COc1ccc(CNC(=O)c2ccc(Cc3cc4c(cc3C)C(C)(C)CCC4(C)C)o2)c(OC)c1 [drawing 1224]
inhibition at 1 µM (human GnRH receptor; [1]): 94%
inhibition at 1 µM (human GnRH receptor; [2]): 96%

Cc1cc2c(cc1Cc1ccc(C(=O)NCc3cccc([N+](=O)[O-])c3)o1)C(C)(C)CCC2(C)C [drawing 1231]
inhibition at 1 µM (human GnRH receptor; [1]): 75%
inhibition at 1 µM (human GnRH receptor; [2]): 77%

Cc1cc2c(cc1Cc1ccc(C(=O)NC(C#N)c3ccccc3)o1)C(C)(C)CCC2(C)C (centres unmarked) [drawing 1233]
inhibition at 1 µM (human GnRH receptor; [1]): 43%
inhibition at 1 µM (human GnRH receptor; [2]): 48%

Cc1cc2c(cc1Cc1ccc(C(=O)NCc3ccc(Br)cc3)o1)C(C)(C)CCC2(C)C [drawing 1234]
inhibition at 1 µM (human GnRH receptor; [1]): 49%
inhibition at 1 µM (human GnRH receptor; [2]): 52%

Cc1cc2c(cc1Cc1ccc(C(=O)NCc3cccc(Br)c3)o1)C(C)(C)CCC2(C)C [drawing 1235]
inhibition at 1 µM (human GnRH receptor; [1]): 62%
inhibition at 1 µM (human GnRH receptor; [2]): 68%

Cc1cc2c(cc1Cc1ccc(C(=O)NC(C)c3ccc([N+](=O)[O-])cc3)o1)C(C)(C)CCC2(C)C (centres unmarked) [drawing 1238]
inhibition at 1 µM (human GnRH receptor; [1]): 41%
inhibition at 1 µM (human GnRH receptor; [2]): 44%
